This is an account of results in US20250332162A1 (priority 2022, published 2025).

Like-named read-outs stand apart in the source and are kept apart here.

Data set [1] is described as follows: Solubility on dilution of 10 mM DMSO stocks. In kind it is physicochemical. As to conditions: 10 mM stocks in DMSO. On the procedure: Antiviral compounds: Favipiravir, Mycophenolate, and Viramidine were prepared as 10 mM stocks in dimethyl sulfoxide (DMSO) and were soluble when diluted in various reaction mixtures and cell culture media. […] Also, combination of Favipiravir with each of the other drugs were tested.

Data set [2] concerns Flu virus strain A/Puerto Rico/8/1934 (PR8). Kind of data set: microbe, parasite or virus in culture. In kind it is cell-based. As to conditions: unidentified influenza virus, PR8, MDCK, MDCK cells.
Setting [3] is: 48 h, read-out: estimated IC50 when used alone, Example A, PR8 Flu virus 0.01 MOI, 48 hours.
The mark [4] stands for this setting: read-out: IC50, inhibition of influenza virus cytopathic activity, drug alone, FIG. 1 experiment, influenza A/PR8 m.o.i. 0.01, pre-treated 1 h, two days.
Where [5] appears, read: read-out: IC50, inhibition of influenza virus cytopathic activity, drug alone, FIG. 7 experiment, influenza m.o.i. 0.01, pre-treated 1 h, two days.

A word on the IC50: it is the midpoint of a concentration-inhibition curve. Consider `NC(=O)c1nc(F)c[nH]c1=O` [Favipiravir, favipiravir], for which the “solubility when diluted in reaction mixtures and cell culture media” value (“solubility when diluted” below) in data set [1] is recorded as “soluble”. Also, the IC50 is 25 µM in data set [2] (setting [3]), 26.5 µM in data set [2] (setting [4]) and 25.1 µM in data set [2] (setting [5]).

For `COc1c(C)c2c(c(O)c1C/C=C(\C)CCC(=O)O)C(=O)OC2` [Mycophenolate], in data set [1], the “solubility when diluted” value is on record as “soluble”. For the same molecule, the figures for the IC50 in data set [2] (setting [3]) and in data set [2] (setting [4]) were 1.42 µM and 1.4 µM, respectively.

With `N=C(N)c1ncn([C@@H]2O[C@H](CO)[C@@H](O)[C@H]2O)n1` [Viramidine, viramidine], the “solubility when diluted” value in data set [1] is “soluble”. The IC50 in data set [2] (setting [3]) and in data set [2] (setting [5]) was 94.7 µM in each case.
